# According to PubChem BioAssay (NCI):
#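 How tested: cells in 96-well plates exposed to compound for 48 hours at five concentrations. TGI: total growth inhibition.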
# Key:
# Assay in all cases: NCI-60 cell line screen, 48 h
# EKVX NSCLC = tested on: EKVX NSCLC
# HL-60(TB) leukemia = tested on: HL-60(TB) leukemia
# CCRF-CEM leukemia = tested on: CCRF-CEM leukemia
# HOP-62 NSCLC = tested on: HOP-62 NSCLC
# HCT-15 colon = tested on: HCT-15 colon
# KM12 colon = tested on: KM12 colon
# OVCAR-3 ovarian = tested on: OVCAR-3 ovarian
# SF-295 CNS = tested on: SF-295 CNS
# MOLT-4 leukemia = tested on: MOLT-4 leukemia
# RXF 393 renal = tested on: RXF 393 renal
# MDA-MB-231 breast = tested on: MDA-MB-231 breast
# DU-145 prostate = tested on: DU-145 prostate
# COLO 205 colon = tested on: COLO 205 colon
# LOX IMVI melanoma = tested on: LOX IMVI melanoma
# SK-OV-3 ovarian = tested on: SK-OV-3 ovarian
# A549 NSCLC = tested on: A549 NSCLC
# SF-539 CNS = tested on: SF-539 CNS
# OVCAR-5 ovarian = tested on: OVCAR-5 ovarian
# HCT-116 colon = tested on: HCT-116 colon
# UACC-62 melanoma = tested on: UACC-62 melanoma
# NCI/ADR-RES ovarian = tested on: NCI/ADR-RES ovarian
# NCI-H23 lung = tested on: NCI-H23 lung
# SF-268 CNS = tested on: SF-268 CNS
# BT-549 breast = tested on: BT-549 breast
# RPMI-8226 leukemia = tested on: RPMI-8226 leukemia
# NCI-H226 lung = tested on: NCI-H226 lung
# T-47D breast = tested on: T-47D breast
# MALME-3M melanoma = tested on: MALME-3M melanoma
# HT29 colon = tested on: HT29 colon
# A498 renal = tested on: A498 renal
# HOP-92 NSCLC = tested on: HOP-92 NSCLC
# SW-620 colon = tested on: SW-620 colon
# PC-3 prostate = tested on: PC-3 prostate
# 786-0 renal = tested on: 786-0 renal
# UO-31 renal = tested on: UO-31 renal
# SK-MEL-28 melanoma = tested on: SK-MEL-28 melanoma
# M14 melanoma = tested on: M14 melanoma
# OVCAR-4 ovarian = tested on: OVCAR-4 ovarian
# MDA-N = tested on: MDA-N
# NCI-H460 lung = tested on: NCI-H460 lung
# MDA-MB-435 = tested on: MDA-MB-435
# ACHN renal = tested on: ACHN renal
# SN12C renal = tested on: SN12C renal
# CAKI-1 renal = tested on: CAKI-1 renal
# SK-MEL-2 melanoma = tested on: SK-MEL-2 melanoma
# SNB-19 CNS = tested on: SNB-19 CNS
# TK-10 renal = tested on: TK-10 renal
# SNB-75 CNS = tested on: SNB-75 CNS
# U251 CNS = tested on: U251 CNS
# MCF7 breast = tested on: MCF7 breast
# K-562 leukemia = tested on: K-562 leukemia
# SK-MEL-5 melanoma = tested on: SK-MEL-5 melanoma
# OVCAR-8 ovarian = tested on: OVCAR-8 ovarian
# NCI-H522 lung = tested on: NCI-H522 lung
# UACC-257 melanoma = tested on: UACC-257 melanoma
# IGROV1 ovarian = tested on: IGROV1 ovarian
# HS 578T breast = tested on: HS 578T breast
# HCC-2998 colon = tested on: HCC-2998 colon
compound,measurement,setting,value
COC(=O)c1cc(NC(=O)c2cc(NC(=O)c3cc([N+](=O)[O-])cn3C)cn2C)cn1C,TGI,EKVX NSCLC,> 100 µM
same,TGI,HL-60(TB) leukemia,> 100 µM
same,TGI,CCRF-CEM leukemia,> 100 µM
same,TGI,HOP-62 NSCLC,> 100 µM
same,TGI,HCT-15 colon,> 100 µM
same,TGI,KM12 colon,> 100 µM
same,TGI,OVCAR-3 ovarian,> 100 µM
same,TGI,SF-295 CNS,> 100 µM
same,TGI,MOLT-4 leukemia,> 100 µM
same,TGI,RXF 393 renal,> 100 µM
same,TGI,MDA-MB-231 breast,> 100 µM
same,TGI,DU-145 prostate,> 100 µM
same,TGI,COLO 205 colon,> 100 µM
same,TGI,LOX IMVI melanoma,> 100 µM
same,TGI,SK-OV-3 ovarian,> 100 µM
same,TGI,A549 NSCLC,> 100 µM
same,TGI,SF-539 CNS,> 100 µM
same,TGI,OVCAR-5 ovarian,> 100 µM
same,TGI,HCT-116 colon,> 100 µM
same,TGI,UACC-62 melanoma,> 100 µM
same,TGI,NCI/ADR-RES ovarian,> 100 µM
same,TGI,NCI-H23 lung,> 100 µM
same,TGI,SF-268 CNS,> 100 µM
same,TGI,BT-549 breast,> 100 µM
same,TGI,RPMI-8226 leukemia,> 100 µM
same,TGI,NCI-H226 lung,> 100 µM
same,TGI,T-47D breast,> 100 µM
same,TGI,MALME-3M melanoma,> 100 µM
same,TGI,HT29 colon,> 100 µM
same,TGI,A498 renal,> 100 µM
same,TGI,HOP-92 NSCLC,95.7 µM
same,TGI,SW-620 colon,> 100 µM
same,TGI,PC-3 prostate,> 100 µM
same,TGI,786-0 renal,> 100 µM
same,TGI,UO-31 renal,> 100 µM
same,TGI,SK-MEL-28 melanoma,> 100 µM
same,TGI,M14 melanoma,> 100 µM
same,TGI,OVCAR-4 ovarian,> 100 µM
same,TGI,MDA-N,> 100 µM
same,TGI,NCI-H460 lung,> 100 µM
same,TGI,MDA-MB-435,> 100 µM
same,TGI,ACHN renal,> 100 µM
same,TGI,SN12C renal,> 100 µM
same,TGI,CAKI-1 renal,> 100 µM
same,TGI,SK-MEL-2 melanoma,> 100 µM
same,TGI,SNB-19 CNS,> 100 µM
same,TGI,TK-10 renal,94.7 µM
same,TGI,SNB-75 CNS,> 100 µM
same,TGI,U251 CNS,> 100 µM
same,TGI,MCF7 breast,> 100 µM
same,TGI,K-562 leukemia,> 100 µM
same,TGI,SK-MEL-5 melanoma,91.9 µM
same,TGI,OVCAR-8 ovarian,> 100 µM
COc1ccccc1C1SCC(=O)N1c1ccc(-c2ccc(-n3c(-c4ccccc4)nc4ccccc4c3=O)cc2)cc1 (stereo not drawn),TGI,EKVX NSCLC,> 100 µM
same,TGI,HL-60(TB) leukemia,> 100 µM
same,TGI,CCRF-CEM leukemia,> 100 µM
same,TGI,HOP-62 NSCLC,> 100 µM
same,TGI,HCT-15 colon,> 100 µM
same,TGI,KM12 colon,> 100 µM
same,TGI,OVCAR-3 ovarian,> 100 µM
same,TGI,SF-295 CNS,> 100 µM
same,TGI,MOLT-4 leukemia,> 100 µM
same,TGI,MDA-MB-231 breast,> 100 µM
same,TGI,DU-145 prostate,> 100 µM
same,TGI,COLO 205 colon,> 100 µM
same,TGI,LOX IMVI melanoma,> 100 µM
same,TGI,SK-OV-3 ovarian,> 100 µM
same,TGI,A549 NSCLC,> 100 µM
same,TGI,SF-539 CNS,> 100 µM
same,TGI,OVCAR-5 ovarian,> 100 µM
same,TGI,HCT-116 colon,> 100 µM
same,TGI,UACC-62 melanoma,> 100 µM
same,TGI,NCI/ADR-RES ovarian,> 100 µM
same,TGI,NCI-H23 lung,> 100 µM
same,TGI,SF-268 CNS,> 100 µM
same,TGI,NCI-H522 lung,> 100 µM
same,TGI,BT-549 breast,> 100 µM
same,TGI,RPMI-8226 leukemia,> 100 µM
same,TGI,NCI-H226 lung,> 100 µM
same,TGI,T-47D breast,> 100 µM
same,TGI,UACC-257 melanoma,> 100 µM
same,TGI,MALME-3M melanoma,> 100 µM
same,TGI,HT29 colon,> 100 µM
same,TGI,A498 renal,> 100 µM
same,TGI,IGROV1 ovarian,> 100 µM
same,TGI,SW-620 colon,> 100 µM
same,TGI,PC-3 prostate,> 100 µM
same,TGI,786-0 renal,> 100 µM
same,TGI,UO-31 renal,> 100 µM
same,TGI,SK-MEL-28 melanoma,> 100 µM
same,TGI,HS 578T breast,> 100 µM
same,TGI,M14 melanoma,> 100 µM
same,TGI,MDA-N,> 100 µM
same,TGI,NCI-H460 lung,> 100 µM
same,TGI,MDA-MB-435,> 100 µM
same,TGI,ACHN renal,> 100 µM
same,TGI,SN12C renal,> 100 µM
same,TGI,CAKI-1 renal,> 100 µM
same,TGI,SK-MEL-2 melanoma,> 100 µM
same,TGI,SNB-19 CNS,> 100 µM
same,TGI,TK-10 renal,> 100 µM
same,TGI,SNB-75 CNS,> 100 µM
same,TGI,U251 CNS,> 100 µM
same,TGI,MCF7 breast,> 100 µM
same,TGI,K-562 leukemia,> 100 µM
same,TGI,HCC-2998 colon,> 100 µM
same,TGI,SK-MEL-5 melanoma,> 100 µM
same,TGI,OVCAR-8 ovarian,> 100 µM
